PubChem BioAssay (NCI)
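Values below derive from 48-hour exposures of cells grown in 96-well plates, with endpoints linearly interpolated between the two concentrations bracketing the appropriate inhibition level. TGI: total growth inhibition.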

Columns and labels:
Assay in all cases: DTP human tumour cell line panel, 48 h
786-0 renal = tested on: 786-0 renal
BT-549 breast = tested on: BT-549 breast
HL-60(TB) leukemia = tested on: HL-60(TB) leukemia
MCF7 breast = tested on: MCF7 breast
MOLT-4 leukemia = tested on: MOLT-4 leukemia
NCI-H460 lung = tested on: NCI-H460 lung
NCI/ADR-RES ovarian = tested on: NCI/ADR-RES ovarian
SF-295 CNS = tested on: SF-295 CNS
SN12C renal = tested on: SN12C renal
SW-620 colon = tested on: SW-620 colon

SMILES | TGI (786-0 renal) [µM] | TGI (BT-549 breast) [µM] | TGI (HL-60(TB) leukemia) [µM] | TGI (MCF7 breast) [µM] | TGI (MOLT-4 leukemia) [µM] | TGI (NCI-H460 lung) [µM] | TGI (NCI/ADR-RES ovarian) [µM] | TGI (SF-295 CNS) [µM] | TGI (SN12C renal) [µM] | TGI (SW-620 colon) [µM]
CC[C@H]1C=CCC[C@@]2(C[C@@H]3CC[C@@H]4[C@H](C(=O)OCCCCCCCCCCCCCCCC(=O)N(CCCN)C[C@@H](O)CCN)[C@]5(CCC[C@@H](C)O5)NC(=[N+]34)N2)O1 | 1.04 | 2.61 | 1.36 | 1.71 | 0.524 | 2.15 | > 10 | 3.52 | > 5.62 | 3.87
CCCCCc1c(CCCC)c(=O)[nH]c2cc(CNCC(OC)OC)ccc12 | 18.1 | 28 | 43.9 | 27.8 | 20.6 | 23.9 | 26.9 | 32.2 | 28.1 | 16.3
Cc1nn(-c2ccccc2)c(C)c1/C=N/NC(=O)c1sc(=S)n(-c2ccccc2)c1N | > 100 | > 100 | > 100 | > 100 | > 100 | 16.3 | > 100 | 6.55 | > 100 | > 100
O=[N+]([O-])C(=C(NCc1ccccc1)NCc1ccccc1)C(Cl)=C(Cl)Cl | > 100 | > 100 | 45.9 | > 100 | 52 | > 100 | > 100 | 60.8 | > 100 | > 100
COC(=O)c1c(O)ccc2c1c1c(n2C)C(=O)c2ccccc2C1=O | 57 | 45.8 | > 100 | > 100 | 22.8 | > 100 | > 100 | 65.6 | > 100 | > 100
Fc1cccc2nc(-c3ccccc3)cc(OCc3ccccc3)c12 | > 100 | > 100 | > 100 | > 100 | > 100 | > 100 | > 100 | > 100 | > 100 | > 100
c1ccc(N=NNNc2ccc(-c3nc4ccccc4[nH]3)cc2)cc1 | > 100 | 76.8 | 62.1 | 69.9 | 36.8 | > 100 | 75.1 | 68 | 98.1 | > 100
CC1CC[C@]2(C(=O)O)CCC3(C)C(=C2[C@H]1C)C=CC1[C@@]2(C)CC[C@H](O)C(C)(C)C2CC[C@]13C (stereo not given in full) | > 100 | > 100 | > 100 | > 100 | > 100 | > 100 | > 100 | 47 | > 100 | > 100
COc1cc(C2c3cc4c(cc3OC(N3CCOCC3)C2C)OCO4)cc(OC)c1O (stereo not given) | > 50.4 | 60.6 | > 26 | > 100 | > 100 | > 100 | 18.4 | 15.8 | 54.3 | > 59.6
COc1ccc(N=C/C=C/Nc2ccc(OC)cc2)cc1 | 15.6 | 9.34 | 8.45 | 16.3 | 22.9 | 28.1 | 25 | 21.6 | 8.86 | 5.48
COc1cccc(C2c3cc4c(cc3OC(N3CCOCC3)C2C)OCO4)c1O (stereo not given) | 53.6 | 76.1 | 6.69 | > 44.2 | 42.2 | 20.4 | 19.1 | 42.9 | 60.5 | > 75.2
CC(=O)O[C@H]1/C(=C/c2ccc(N(C)C)cc2)C[C@H]2[C@@H]3CC=C4C[C@@H](N5CCCC5)CC[C@]4(C)[C@H]3CC[C@]12C | > 100 | > 100 | > 100 | > 100 | > 100 | > 100 | > 100 | > 100 | > 100 | > 100
c1ccc2c(c1)SC1Sc3ccccc3[S+]21 (stereo not given) | > 62.4 | 37.2 | 60.9 | > 69.2 | 47.8 | > 70.7 | 51 | > 100 | 33.6 | > 76.7
NC1CCC(c2cc3ccccc3s2)(N2CCCCC2)CC1 (stereo not given) | 2.83 | 3.08 | 4.58 | 3.05 | 3.25 | 3.06 | 2.42 | 12.7 | 3.1 | 3.2
Cn1c(N/N=C/c2ccc(Cl)cc2)nc(-c2ccc(Cl)cc2)c(C#N)c1=O | 29.8 | 67.5 | > 100 | 67.8 | > 100 | > 100 | > 100 | 41.5 | > 100 | > 100
CN(C)CCOc1ccc(-c2c(Oc3ccc(Cl)cc3)c(=O)oc3ccccc23)cc1 | > 27.9 | 28.3 | > 100 | > 28.3 | > 41.8 | 27.4 | > 52.1 | > 25.7 | > 43.6 | > 62
COc1cc2[nH]c(-c3ccccc3)cc(=O)c2cc1OC | > 100 | > 100 | 41 | > 28.8 | > 100 | > 66.6 | > 100 | > 100 | > 100 | > 100

SMILES | TGI (786-0 renal) [µM] | TGI (BT-549 breast) [µM] | TGI (HL-60(TB) leukemia) [µM] | TGI (MCF7 breast) [µM] | TGI (MOLT-4 leukemia) [µM] | TGI (NCI-H460 lung) [µM] | TGI (NCI/ADR-RES ovarian) [µM] | TGI (SF-295 CNS) [µM] | TGI (SN12C renal) [µM] | TGI (SW-620 colon) [µM]
CC1(C)N=C(N)N=C(N)N1c1cccc(CSc2ccccc2)c1 | > 100 | > 100 | 13.3 | > 100 | > 100 | > 100 | > 100 | > 100 | > 100 | > 100
Cn1c2ccccc2n2c3nc4ccccc4nc3c(C#N)c12 | > 100 | > 100 | > 100 | > 100 | > 100 | > 100 | > 100 | > 100 | > 100 | > 100
NNC(=O)c1ccccc1NC(=O)/C(=C/c1ccccc1)NC(=O)c1ccccc1 | > 100 | > 100 | > 100 | > 100 | > 100 | > 100 | > 100 | > 100 | > 100 | > 100
COC(=O)/C=C1/OC(c2ccccc2)=C(Cl)C1=O | 33.7 | 40.3 | 16.2 | 37.5 | 18.1 | > 77.6 | 61.9 | > 65.1 | > 60.1 | 41.6
Cc1nc2ccccc2n1CCc1nc2ccccc2s1 | > 100 | > 100 | 60.8 | > 100 | 53.6 | > 100 | > 100 | > 100 | > 100 | > 100
O=S1(=O)c2ccccc2N2CCCc3cc(Cl)cc1c32 | > 100 | > 100 | > 100 | > 100 | > 100 | > 100 | > 100 | 95 | > 100 | > 100
COC(=O)C(Cc1ccccc1)NC(=O)CNC(=O)CSc1nnc(COc2ccc(Cl)cc2)n1-c1ccccc1 (stereo not given) | 30.5 | 35.6 | 13.7 | 35.5 | > 24.2 | 32.2 | 42 | 31.7 | 32.5 | 47
COc1cc2c(cc1OCCCC(=O)Nc1cc(C(=O)Nc3cc(C(=O)NCCCN(C)C)n(C)n3)n(C)n1)N=CC1CCCN1C2=O (stereo not given) | 35.5 | 26.5 | 32.1 | 29.5 | 18.9 | > 100 | 57.3 | > 100 | 30.1 | 29.2
CCCCCC(C)C[C@H]1CO[C@H](c2ccc[nH]2)N[C@H]1C(=O)OC (stereo not given in full) | > 100 | > 100 | > 100 | > 100 | > 100 | > 100 | > 100 | > 100 | > 100 | > 100
Cc1nc2c(Br)cc(Br)cc2c(=O)n1-c1ccccc1N | > 100 | 87.6 | 66.5 | > 100 | > 100 | > 100 | > 100 | > 100 | > 100 | > 100
CN(C)c1ccc(C(c2ccc(N(C)C)cc2)c2ccc([N+](=O)[O-])cc2)cc1 | > 100 | > 100 | > 100 | > 100 | > 100 | > 100 | > 100 | > 100 | > 100 | > 100
COc1ccc(-c2cn3c(n2)sc2cc(C)ccc23)cc1 | 59.8 | 87.4 | 23 | 95.7 | > 100 | > 100 | > 100 | 52.5 | 88.7 | > 100
O=C(c1cccs1)N(C(=O)N1CCC(c2ccccc2)CC1)c1ccccc1 | > 100 | > 100 | 91.2 | > 100 | > 100 | > 100 | > 100 | > 100 | > 100 | > 100
COc1ccc(CN=CN/C(C#N)=C(\N)C#N)cc1OC | > 100 | > 100 | > 100 | > 100 | > 100 | > 100 | > 100 | > 100 | > 100 | > 100
C/C(=N/O)c1cccc(Nc2nc3ccccc3c3[nH]c4ccccc4c23)c1 | 6.96 | 34.7 | 8.23 | 5.63 | 3.55 | 4.74 | 20 | 5.58 | 13.4 | 19.4
C=C[C@H]1CN2CC[C@H]1C[C@@H]2[C@@H](O)c1ccnc2ccccc12 | > 100 | > 100 | > 100 | > 100 | > 100 | > 100 | > 100 | > 100 | > 100 | > 100
CC1=Nn2c(nc3sc4c(c3c2=O)CCCC4)SC1 | > 100 | > 100 | > 87.4 | > 100 | > 94.6 | > 100 | > 100 | > 100 | > 100 | > 100
